Experiment: solvent given as SMILES

Clc1ccccc1
Details	solvation free energy, 298 K [kcal/mol]
in C1CCOC1	-6.04
in C1COCCO1	-5.78
in CC(=O)N(C)C	-5.01
in CC(C)(C)O	-5.03
in CC(C)=O	-5.65
in CC(C)CC(C)(C)C	-4.92
in CC(C)CCO	-5.12
in CC(C)CO	-5.09
in CC(C)O	-4.92
in CC(O)CO	-4.36
in CCC(C)O	-5.09
in CCCCCC	-5.21
in CCCCCCC	-5.17
in CCCCCCCCCC	-4.93
in CCCCCCCCCCCCCCCC	-4.94
in CCCCCO	-5.21
in CCCCCl	-5.59
in CCOC(C)=O	-5.66
in CN(C)C=O	-5.66
in CNC(C)=O	-5.17
in CO	-5.01
in COCCO	-5.23
in Cc1ccc(C)cc1	-5.52
in Cc1ccccc1C	-5.59
in ClCCl	-5.91
in N#Cc1ccccc1	-5.63
in NC=O	-3.58
in O	-1.14
in OCCO	-3.88

Brc1ccccc1
Details	solvation free energy, 298 K [kcal/mol]
in C1CCOC1	-6.45
in C1COCCO1	-6.45
in CCCCCC	-5.66
in CCCCCCC	-5.72
in CCCCCCCCCC	-5.43
in CCCCCCCCCCCCCCCC	-5.47
in CN(C)C=O	-6.21
in COCCO	-5.73
in ClC(Cl)(Cl)Cl	-6.23
in NC=O	-4.11
in O	-1.46
in OCCO	-4.42

FC(Cl)(Cl)C(F)(Cl)Cl
Details	solvation free energy, 298 K [kcal/mol]
in C1CCOC1	-4.82
in C1COCCO1	-4.46
in CC(C)=O	-4.45
in CCCCCC	-4.43
in CCCCCCC	-3.98
in CCCO	-3.64
in CCOC(C)=O	-4.62
in COC(C)(C)C	-4.68
in O	0.87

CC1=CCC(C(C)C)c2cc(C)ccc21 (stereo not given)
Details	solvation free energy, 298 K [kcal/mol]
in O	-1.12

CCCCS
Details	solvation free energy, 298 K [kcal/mol]
in O	-0.88

OC1CCCC1
Details	solvation free energy, 298 K [kcal/mol]
in C1COCCO1	-6.33
in CC(C)=O	-6.28
in O	-5.5

COc1ncnc(NS(=O)(=O)c2ccc(N)cc2)c1OC
Details	solvation free energy, 298 K [kcal/mol]
in O	-19.6

CC(C)C#N
Details	solvation free energy, 298 K [kcal/mol]
in CCCCCCCCCCCCCCCC	-3.08
in CCCCCCCCO	-3.92
in O	-3.31
in [2H]O[2H]	-3.29

C=C1C2CCC(C2)C1(C)C (stereo not given)
Details	solvation free energy, 298 K [kcal/mol]
in O	0.61

CC(=O)Nc1ccc(O)cc1
Details	solvation free energy, 298 K [kcal/mol]
in C1CCOC1	-16.1
in C1COCCO1	-14.9
in CC(C)(C)O	-15.8
in CC(C)CO	-15.6
in CC(C)O	-16
in CC(C)OCCO	-16.1
in CC(O)COC(C)(C)C	-15.5
in CCC(C)O	-15.8
in CCCCCCCO	-15.3
in CCCCCCO	-15.5
in CCCCCO	-15.6
in CCCCO	-15.8
in CCCCOC(C)=O	-14.2
in CCCCOCCCC	-12
in CCCCOCCO	-15.8
in CCCO	-16.1
in CCCOCCO	-16.1
in CCOCCO	-16.4
in CN(C)C=O	-17.3
in CO	-16.6
in COC(C)(C)C	-13.4
in COC(C)=O	-14.8
in COC(C)CCO	-16
in ClCCl	-12.8
in Fc1ccccc1	-12.1
in O	-14.9

Nc1cccc([N+](=O)[O-])c1
Details	solvation free energy, 298 K [kcal/mol]
in CC(C)CC(C)(C)C	-8.01
in O	-8.84

C1CCCC1
Details	solvation free energy, 298 K [kcal/mol]
in CC#N	-2.52
in CC(C)CCCC(C)CCCC(C)CCCCC(C)CCCC(C)CCCC(C)C	-3.23
in CC(C)O	-2.89
in CCCC#N	-2.86
in CCCCCC	-3.7
in CCCCCCCCCC	-3.46
in CCCCCCCCCCCC	-3.37
in CCCCCCCCCCCCCCCC	-3.31
in CCCCCCCO	-3.1
in CCCO	-2.89
in CCO	-2.78
in CN1CCCC1=O	-2.7
in CN1CCCCC1=O	-2.81
in CN1CCN(C)C1=O	-2.56
in CN(C)C=O	-2.73
in CO	-2.62
in COC(C)(C)C	-3.55
in ClC(Cl)(Cl)Cl	-3.78
in ClC=CCl	-3.78
in N#CCCCCC#N	-2.08
in N#Cc1ccccc1	-3
in NCCO	-1.24
in O	1.2
in O=CN1CCOCC1	-2.22
in O=Cc1ccco1	-2.41
in OC1CCCCC1	-3.02
in OCc1ccccc1	-2.7
in OCc1ccco1	-2.39
in S=C=S	-3.84
in c1ccc2ncccc2c1	-3.21

CC=CCC
Details	solvation free energy, 298 K [kcal/mol]
in CN(C)C=O	-2.46
